The source of these data is ChEMBL document CHEMBL2094269, “WEHI/Eskitis Trypanosoma b. brucei screening data”.

The IC50 is the midpoint of a concentration-inhibition curve. Low readings indicate greater potency in that assay, high ones weaker potency in that assay.

The nature of data set [1]: DNDI: Cytotoxicity against human MRC-5 lung fibroblast cells. The settings on record: IC50.
The subject of data set [2] is Trypanosoma brucei brucei. In words: microbe, parasite or virus in culture. It counts as functional, organism-based, STIB 795.
Description: DNDI: Inhibition of Human African Trypanosomiasis (HAT), STIB 795, in vitro

For the compound `CCOC(=O)N/N=C\c1ccc(-c2cccc(C(F)(F)F)c2)o1`, the IC50 in data set [1] is more than 41.7 µM; in data set [2] (Trypanosoma brucei, STIB 795), 3.19 µM.
In the same order, the values of `O=c1cc(OC2=CS(=O)(=O)c3ccccc32)c2ccccc2o1` are 5.99 µM and 3.59 µM.
In the same order, the values of `O=C(COc1ccccc1)N/N=C/c1sc2ccccc2c1O` are more than 20.8 µM and 7.88 µM.
As to `c1ccc2c(OCCCCCCNCC3CCCO3)cccc2c1` (centres undefined), the IC50 in data set [1] was more than 41.7 µM; in data set [2] (Trypanosoma brucei, STIB 795), 5.25 µM.
The corresponding values for `CC(C)NC[C@]1(C)CCC[C@]2(C)c3ccc(C(C)C)cc3CC[C@@H]12` are more than 41.7 µM and 0.47 µM.
Turning to `O=C(N/N=C/c1sc2ccccc2c1O)c1ccc(O)cc1O`, the IC50 in data set [1] is more than 4.17 µM; in data set [2] (Trypanosoma brucei, STIB 795), 4.44 µM.
With `NS(=O)(=O)c1ccc(/N=N/c2ccc(O)c3ncccc23)cc1`, the concentration for half-maximal inhibition (IC50) was more than 20.8 µM in data set [1] and 4.78 µM in data set [2] (Trypanosoma brucei, STIB 795).
The corresponding values for `CCN(CC)c1ccc(/C=N\NC(=O)Cc2cccn2C)c(O)c1` are more than 4.17 µM and 3.62 µM.
For the compound `Clc1cc2c(c3ncccc13)OCN(CCC1=CCCCC1)C2`, the half-inhibitory concentration (IC50) in data set [1] is more than 20.8 µM; in data set [2] (Trypanosoma brucei, STIB 795), 1.05 µM.
In the same order, the values of `CC(C)(C)c1ccc(/C(=N\NC(=N)N)c2ccc(Cl)cc2)cc1` are more than 20.8 µM and 1.1 µM.
In the case of `O=C(O)c1ccc(NNc2c3ccccc3nc3ccccc23)cc1`, the IC50 was more than 41.7 µM in data set [1] and 1.02 µM in data set [2] (Trypanosoma brucei, STIB 795).
In the same order, the values of `CC1(C)N=C(N)N=C(N)N1OCc1cccc(C2CCCCC2)c1` are more than 41.7 µM and 4.68 µM.
Regarding `O=C(c1ccc(Cl)cc1)C(CN1CCOCC1)c1ccccc1` (centres undefined), the IC50 was more than 20.8 µM in data set [1]; 4 µM in data set [2]; 3.11 µM in data set [2] (Trypanosoma brucei, STIB 795).
Turning to `Cc1cc(C)c(C(=O)CC(N2CCCCC2)C(F)(F)F)c(=O)[nH]1` (centres undefined), the IC50 in data set [1] was more than 20.8 µM; in data set [2] (Trypanosoma brucei, STIB 795), 2.27 µM.
The corresponding values for `CCOC(=O)C/C(C)=N/Nc1ccc(-n2nc(C)c(C)c2C)nn1` are more than 10.4 µM and 2.16 µM.
Consider `CC1(C)CC(=O)C(C2=C(Cl)C(=O)c3ccccc3C2=O)=C(O)C1`, for which the half-maximal inhibitory concentration (IC50) in data set [1] was more than 41.7 µM; in data set [2], 0.59 µM; in data set [2] (Trypanosoma brucei, STIB 795) it was 0.642 µM.
With `CC(=O)CC1(O)C(=O)Nc2ccc(I)cc21` (centres undefined), the IC50 was more than 41.7 µM in data set [1] and 3.13 µM in data set [2] (Trypanosoma brucei, STIB 795).
In the same order, the values of `Cc1cc(Cl)cc(Cl)c1OCCCCCN1CCNCC1` are more than 20.8 µM and 2.28 µM.
Regarding `Cn1c(Cc2ccccc2)nn(C2CC(=O)C3OCC2O3)c1=S` (centres undefined), the IC50 is more than 41.7 µM in data set [1] and 4.91 µM in data set [2] (Trypanosoma brucei, STIB 795).
The corresponding values for `CC1CC(C)(C)Nc2ccc(OCc3cccc4ccccc34)cc21` (centres undefined) are more than 20.8 µM and 0.832 µM.
The corresponding values for `CCOc1cc2c(cc1OCC)C(c1ccc(Cl)cc1)NCC2` (centres undefined) are more than 20.8 µM and 5.64 µM.
In the same order, the values of `CC(C)/C(N)=N/OC(=O)c1ccc(I)cc1` are more than 41.7 µM and 0.808 µM.
For `O=C1NC(=S)NC(=O)C1=Cc1c2ccccc2cc2ccccc12`, the IC50 was more than 41.7 µM in data set [1] and 5.29 µM in data set [2] (Trypanosoma brucei, STIB 795).
In the same order, the values of `Cc1cccc(-n2nnn(C3CC(=O)C4OCC3O4)c2=S)c1C` (centres undefined) are more than 41.7 µM and 5.25 µM.
The corresponding values for `COc1ccc2c(C)cc(Sc3cccc4cccnc34)nc2c1` are more than 41.7 µM and 5.58 µM.
Turning to `CC(C)(C)C1C/C(=C\c2cccnc2)C(=O)/C(=C/c2cccnc2)C1` (centres undefined), the IC50 in data set [1] was more than 4.17 µM; in data set [2] (Trypanosoma brucei, STIB 795), 0.098 µM.
Take `O=C(CCN1CCCCC1)Nc1ccc(OC(F)(F)Cl)cc1`: the IC50 in data set [1] was more than 41.7 µM; in data set [2] it was 3.9 µM; in data set [2] (Trypanosoma brucei, STIB 795), 4.27 µM.
Turning to `N/C(=N\OC(=O)C12CC3CC(CC(C3)C1)C2)c1ccccc1Cl`, the IC50 in data set [1] is more than 41.7 µM; in data set [2] (Trypanosoma brucei, STIB 795), 0.372 µM.
In the same order, the values of `O=c1c(Oc2ccccc2Br)coc2cc(O)ccc12` are more than 41.7 µM and 4.46 µM.
The corresponding values for `CCOc1cc(-n2ncc(Cl)c(Cl)c2=O)nc(SC)n1` are more than 4.17 µM and 1.51 µM.
The corresponding values for `Cc1cc(/C=N/n2cnnc2)c(C)n1-c1cccc(C(F)(F)F)c1` are more than 41.7 µM and less than 0.04 µM.
As for `c1ccc(COc2ccc(-c3cc(C4CCNCC4)[nH]n3)cc2)cc1`, the IC50 in data set [1] is more than 10.4 µM; in data set [2] (Trypanosoma brucei, STIB 795), 1.95 µM.
The corresponding values for `CC(C)(C)c1ccc2c(c1)OCCOCCOCCOCCO2` are more than 20.8 µM and 5.26 µM.
In the same order, the values of `Cc1cccc2c1NC(=O)C2(c1ccc(O)cc1)c1ccc(O)cc1` are more than 20.8 µM and 5.72 µM.
Take `CC(C)Nc1ccc(Nc2ccnc3cc4ccccc4cc23)cc1`: the IC50 in data set [1] is more than 41.7 µM; in data set [2] (Trypanosoma brucei, STIB 795) it was 2.58 µM.
In the same order, the values of `Cc1cc(NCCN2CCCCC2)c2ccc3ccccc3c2n1` are more than 20.8 µM and 2.43 µM.
The corresponding values for `S=C(N/N=C(/c1ccccc1)c1ccccn1)Nc1ccccc1` are more than 4.17 µM and 4.84 µM.
Regarding `Cc1ccc(C(OCC(C)(C)C[N+](C)(C)C)c2ccccc2)cc1` (centres undefined), the IC50 in data set [1] was more than 41.7 µM; in data set [2] (Trypanosoma brucei, STIB 795), 6.71 µM.
